Literature values in PubChem BioAssay AID1259409 (Chemical Carcinogenesis Research Information System (CCRIS), 2018).

System: rodent chemically induced tumor inhibition, incidence and multiplicity
Test: CCRIS tumor inhibitor studies
Conditions: Carcinogen: 4-(METHYLNITROSAMINO)-1-(3-PYRIDYL)-1-BUTANONE, 64091-91-4, Promoter: NONE USED; for tumour outcome (control, treated, inhibition, significance): Dose [Inhibitor]: 0

S=C=NCCc1ccccc1
tumour outcome (control, treated, inhibition, significance) (3 UMOL/G OF DIET FOR 112 WK BEGINNING 1 WK PRIOR TO CARCINOGEN TREATMENT (STUDY DURATION: 112 WK), Route [Inhibitor]: ORAL, Species: RAT, Strain/Sex: F344/MALE, Target Tissue: Type of Lesion: PANCREAS (EXOCRINE): MALIGNANT TUMOR, Dose [Carcinogen]: 2 PPM IN DRINKING WATER FOR 111 WK): 4/52 (8%), 0/59 (0%), 100%, p=0.005 | tumour outcome (control, treated, inhibition, significance) (5 UMOL 1/D FOR 4 D ADMINISTERED PRIOR TO CARCINOGEN DOSE (STUDY DURATION: 116 D), Route [Inhibitor]: GAVAGE, Species: MOUSE, Strain/Sex: STRAIN-A, Target Tissue: Type of Lesion: LUNG: ADENOMA, Dose [Carcinogen]: 10 UMOL IN SALINE ADMINISTERED 2 HR POST LAST AGENT DOSE): 100%, 93%, 7%, not calculated | tumour outcome (control, treated, inhibition, significance) (5 UMOL 1/D FOR 4 D ADMINISTERED PRIOR TO CARCINOGEN TREATMENT (STUDY DURATION: 116 D), Route [Inhibitor]: GAVAGE, Species: MOUSE, Strain/Sex: STRAIN A, Target Tissue: Type of Lesion: LUNG: ADENOMA, Dose [Carcinogen]: 10 UMOL ONCE 2 HR AFTER FINAL DOSE OF INHIBITOR): 100%, 93%, 7%, not significant | tumour outcome (control, treated, inhibition, significance) (5 UMOL 1/D FOR 4 DAYS ADMINISTERED PRIOR TO CARCINOGEN TREATMENT (STUDY DURATION: 116 D), Route [Inhibitor]: GAVAGE, Species: MOUSE, Strain/Sex: STRAIN-A, Target Tissue: Type of Lesion: LUNG: ADENOMA, Dose [Carcinogen]: 10 UMOL ONCE 2 HR AFTER FINAL DOSE OF INHIBITOR): 100%, 89%, 11%, not significant | tumour outcome (control, treated, inhibition, significance) (5 UMOL/D ADMINISTERED TO MICE HETEROZYGOUS (P53+/-) FOR P53 ALLELES FOR 4 CONSECUTIVE DAYS PRIOR TO CARCINOGEN DOSE (, Route [Inhibitor]: GAVAGE, Species: MOUSE, Strain/Sex: (A/J X TSG-P53)F1/FEMALE, Target Tissue: Type of Lesion: LUNG: ADENOMA, Dose [Carcinogen]: 10 UMOL ONCE): 100%, 40%, 60%, p<0.0001 | tumour outcome (control, treated, inhibition, significance) (5 UMOL/D ADMINISTERED TO MICE HOMOZYGOUS (P53+/+) FOR P53 ALLELES FOR 4 CONSECUTIVE DAYS PRIOR TO CARCINOGEN DOSE (ST, Route [Inhibitor]: GAVAGE, Species: MOUSE, Strain/Sex: (A/J X TSG-P53)F1/FEMALE, Target Tissue: Type of Lesion: LUNG: ADENOMA, Dose [Carcinogen]: 10 UMOL ONCE): 100%, 36%, 64%, p<0.0001 | tumour outcome (control, treated, inhibition, significance) (5 UMOL/D FOR 4 CONSECUTIVE DAYS (STUDY DURATION: 17 WK), Route [Inhibitor]: GAVAGE, Species: MOUSE, Strain/Sex: STRAIN-A/FEMALE, Target Tissue: Type of Lesion: LUNG: ADENOMA, Dose [Carcinogen]: 10 UMOL ONCE 2 HR POST LAST AGENT DOSE): 100%, 89%, 11%, not calculated | tumour outcome (control, treated, inhibition, significance) (5 UMOL/D FOR 4 CONSECUTIVE DAYS PRIOR TO CARCINOGEN DOSE (STUDY DURATION: 18 WK), Route [Inhibitor]: GAVAGE, Species: MOUSE, Strain/Sex: STRAIN-A/FEMALE, Target Tissue: Type of Lesion: LUNG: ADENOMA, Dose [Carcinogen]: 10 UMOL ONCE): 100%, 100%, 0%, not significant | tumour outcome (control, treated, inhibition, significance) (25 UMOL 1/D FOR 4 D ADMINISTERED PRIOR TO CARCINOGEN TREATMENT (STUDY DURATION: 116 D), Route [Inhibitor]: GAVAGE, Species: MOUSE, Strain/Sex: STRAIN-A, Target Tissue: Type of Lesion: LUNG: ADENOMA, Dose [Carcinogen]: 10 UMOL ONCE 2 HR AFTER FINAL DOSE OF INHIBITOR): 100%, 30%, 70%, p<0.01 | tumour outcome (control, treated, inhibition, significance) (25 UMOL/D FOR 4 CONSECUTIVE DAYS (STUDY DURATION: 17 WK), Route [Inhibitor]: GAVAGE, Species: MOUSE, Strain/Sex: STRAIN-A/FEMALE, Target Tissue: Type of Lesion: LUNG: ADENOMA, Dose [Carcinogen]: 10 UMOL ONCE 2 HR POST LAST AGENT DOSE): 100%, 30%, 70%, p<0.01 | tumour outcome (control, treated, inhibition, significance) (652 PPM IN DIET FOR 22 WK BEGINNING 1 WK PRIOR TO CARCINOGEN TREATMENT (STUDY DURATION: 98 WK), Route [Inhibitor]: ORAL, Species: RAT, Strain/Sex: F344/MALE, Target Tissue: Type of Lesion: LUNG: TUMOR, Dose [Carcinogen]: 1.5 MG/KG BW 3/WK FOR 20 WK): 22/33 (67%), 6/36 (17%), 75%, p<0.001 | tumour outcome (control, treated, inhibition, significance) (652 PPM IN DIET FOR 22 WK BEGINNING 1 WK PRIOR TO CARCINOGEN TREATMENT (STUDY DURATION: 98 WK), Route [Inhibitor]: ORAL, Species: RAT, Strain/Sex: F344/MALE, Target Tissue: Type of Lesion: NASAL CAVITY: TUMOR, Dose [Carcinogen]: 1.5 MG/KG BW 3/WK FOR 20 WK): 28/36 (78%), 17/36 (47%), 40%, not significant | tumour outcome (control, treated, inhibition, significance) (1304 PPM IN DIET FOR 22 WK BEGINNING 1 WK PRIOR TO CARCINOGEN DOSE (STUDY DURATION: 98 WK), Route [Inhibitor]: ORAL, Species: RAT, Strain/Sex: F344/MALE, Target Tissue: Type of Lesion: NASAL CAVITY: TUMOR, Dose [Carcinogen]: 1.5 MG/KG BW 3/WK FOR 20 WK): 28/36 (78%), 21/36 (58%), 26%, not significant | tumour outcome (control, treated, inhibition, significance) (1304 PPM IN DIET FOR 22 WK BEGINNING 1 WK PRIOR TO CARCINOGEN TREATMENT (STUDY DURATION: 98 WK), Route [Inhibitor]: ORAL, Species: RAT, Strain/Sex: F344/MALE, Target Tissue: Type of Lesion: LUNG: TUMOR, Dose [Carcinogen]: 1.5 MG/KG BW 3/WK FOR 20 WK): 22/33 (67%), 3/36 (8%), 88%, p<0.0001 | outcome (Dose [Inhibitor]: 3 UMOL/G DIET BEGINNING 1 WK PRIOR TO FIRST CARCINOGEN DOSE (STUDY DURATION: 104 WK), Route [Inhibitor]: ORAL, Species: RAT, Strain/Sex: F344/MALE, Target Tissue: Type of Lesion: ADRENAL GLAND: ADENOMA, Dose [Carcinogen]: 1.76 MG/KG 3/WK FOR 20 WK): 0/40 (0%), 2/40 (5%), -5%, not calculated
